According to patent US5942502A, “Method of treating diseases resulting from calcium metabolism disorders” (priority 1998, dated 1999):
“Also recorded” adds a separate entry of the source. Like-named read-outs stand apart in the source and are kept apart here.

Tests used:
[1] = Overall safety / tolerance between effectiveness and toxicity in humans; type: in vivo, human
female beagle dogs = experiment: Chronic dosing toxicity, three months oral; type: in vivo, dog (beagle)
Procedure: With respect to chronic dosing, a group of six female beagle dogs were given 0.3 mg/kg of either ST-630 or 1α-hydroxyvitamin D3 orally each day for three months.

[2] = Single-dose clinical study of ST-630: urinary excretions of electrolytes; type: in vivo, human
Text: (3) Urinalysis: pH, occult blood, protein, glucose, bilirubin, urobilinogen, sediment and creatinine clearance (24-hour method)
(2) Urinary excretion ST-630, Ca, P, Mg, Na, K, creatinine, c-AMP*^3 and hydroxyproline*^3

Ovariectomized rats = experiment: Ovariectomized rat model: serum Ca and P, femur dry weight, ash weight and breaking load; type: in vivo, Female Fisher rats; details: for Serum Pi / Breaking load (femur) / Serum Ca / Ash weight (femur) / Dry weight (femur): three times a week for 23 weeks, Mean ± SD; for Serum Pi: OVX 2.6 ± 0.4; for Breaking load (femur): OVX 9.0 ± 0.9; for Serum Ca: OVX 9.7 ± 0.2; for Ash weight (femur): OVX 285 ± 19; for Dry weight (femur): OVX 431 ± 26
Text: Female Fisher rats, 9-10 months old, were ovariectomized and were fed a vitamin D-deficient diet containing 0.45% calcium and 0.3% phosphorus. The rats were given 15IU of vitamin D3 orally once a week throughout this experiment. Four weeks after the surgery, the rats were orally adminstered three times a week for 23 weeks with ST-630 (30, 100 or 300 pmole/kg) or 1α-hydroxyvitamin D3 (100 or 300 pmole/kg).

[3] = Repeated-dose clinical study of ST-630 (7 days, postprandial); type: in vivo, human; details: 1.0 μg/day for 7 days
Procedure: 4.1. Dosing schedule (postprandial administration)
*^1 : Blood samples are collected only immediately before
*^2 : Blood samples are collected only immediately before
*^3 : Only cereatinie are determined immediately before and 12 hr
after administration on day 1, immediately before and 12, 24, 48, 72, 96
and 120 hr after the last administration, and at followup examination. On
days 2-6, blood samples are collected only immediately before
ST-630 was administered postprandially at a daily dose of 1.0 μg for 7 days.

[4] = tested on: vitamin D responsive systems of vitamin D-deficient animals; details: cited from earlier work; for activity relative to 1,25-(OH)2 D3: vitamin D responsive systems, vitamin D-deficient animals, times that of 1,25-(OH)2 D3
[5] = Subjective and objective symptoms (incl. ESR) in the clinical studies of ST-630; type: in vivo, human
Text: 2) Questioning, auscultation, percussion
5. Subjective and objective symptoms

[6] = Single-dose clinical study of ST-630: blood biochemistry / serum electrolytes; type: in vivo, human
Text: (2) Blood biochemistry: Total protein fraction, BUN, creatinine, total cholesterol, neutral fat, phospholipid, serum electrolytes (Na, K, Cl, Ca, P, Mg), Al-P, GOT, GPI, LDH, γ-GTP, CPK, blood glucose, HBs antigen/antibody*^1, serologic test for syphilis, activated partial thrombo-plastin time *^2 and prothrombin time *^2
(§1) (1) Serum concentrations: ST-630, Ca, P, Mg and Al-P

male rats = experiment: Acute toxicity (LD50), single dose; type: in vivo, rat; details: rats, from LD50
Text: (§2) LD50 data represent the dose administered resulting in the death of 50% of the test group.

[7] = Acute toxicity (LD50), single dose; type: in vivo, rat; details: rat, in vivo; single (acute) dose, male rats, at 14 days
Text: as §2

[8] = Study of dietary effect on the absorption of ST-630 (crossover); type: in vivo, human; details: 2.0 μg, postprandial (30 min after meal) compared with fasting (FIG. 13)
Procedure: as §1
*: Administration at 30 min after meal.
The dietary effect on the absorption of ST-630 was studied by the crossover method at the dose of 2.0 μg.

[9] = compared with 1α-hydroxyvitamin D3
[10] = dose response over the doses tested
[11] = vitamin D-like activity compared with 1,25-dihydroxycholecalciferol
[12] = 0.0125 μg single dose, subject 1, last value, no date
[13] = 2.0 μg single dose, subject 8, last value, no date
[14] = single dose 0.25, 0.5, 1 and 2 μg/man (FIGS. 1-4)
[15] = single doses 0.0125 μg to 2.0 μg

C=C1/C(=C\C=C2/CCC[C@]3(C)[C@@H]([C@H](C)CCCC(O)(C(F)(F)F)C(F)(F)F)CC[C@@H]23)C[C@@H](O)C[C@@H]1O [ST-630, 26,26,26,27,27,27-hexafluoro-1α,25-dihydroxycholecalciferol]
calcium absorption [1]: promoted calcium absorption
hypercalcemia [1]: no hypercalcemia
safety [1]: no remarkable problem on safety
"window" or tolerance between effectiveness and toxicity in humans ([1]; up to 2.0 μg): relatively large
deaths (female beagle dogs; 0.3 mg/kg orally each day for three months): all six dogs
toxicity relative to 1α-hydroxyvitamin D3 (female beagle dogs; conclusion for rats and dogs): much more toxic
total urinary Ca excretion ([2]; single dose 2.0 μg): increases
urinary Ca/Cr ratio ([2]; single dose 2.0 μg): increases
urinary electrolytes ([2]; single doses below 2.0 μg (FIGS. 5-12)): no significant increases
Serum Pi (Ovariectomized rats; 30 pmole/kg p.o.): 3.6 ± 0.3 mg/100 ml
Breaking load (femur) (Ovariectomized rats; 30 pmole/kg p.o.): 9.7 ± 0.8 kg
Serum Ca (Ovariectomized rats; 30 pmole/kg p.o.): 9.9 ± 0.4 mg/100 ml
Ash weight (femur) (Ovariectomized rats; 30 pmole/kg p.o.): 298 ± 22 mg
Dry weight (femur) (Ovariectomized rats; 30 pmole/kg p.o.): 449 ± 29 mg
Serum Pi (Ovariectomized rats; 100 pmole/kg p.o.): 4.8 ± 0.2 mg/100 ml
Breaking load (femur) (Ovariectomized rats; 100 pmole/kg p.o.): 10.6 ± 0.5 kg
Serum Ca (Ovariectomized rats; 100 pmole/kg p.o.): 10.6 ± 04 mg/100 ml
Ash weight (femur) (Ovariectomized rats; 100 pmole/kg p.o.): 319 ± 12 mg
Dry weight (femur) (Ovariectomized rats; 100 pmole/kg p.o.): 472 ± 21 mg
Serum Pi (Ovariectomized rats; 300 pmole/kg p.o.): 5.3 ± 0.3 mg/100 ml
Breaking load (femur) (Ovariectomized rats; 300 pmole/kg p.o.): 12.4 ± 1.3 kg
Serum Ca (Ovariectomized rats; 300 pmole/kg p.o.): 11.7 ± 0.7 mg/100 ml
Ash weight (femur) (Ovariectomized rats; 300 pmole/kg p.o.): 362 ± 32 mg
Dry weight (femur) (Ovariectomized rats; 300 pmole/kg p.o.): 538 ± 47 mg
prevention of the decrease of ash weight of the femur (Ovariectomized rats; [9]): more potently
prevention of the decrease of breaking load of the femur (Ovariectomized rats; [9]): more potently
prevention of the decrease of dry weight of the femur (Ovariectomized rats; [9]): more potently
increase of mechanical strength of the bone (Ovariectomized rats; compared with 1α-hydroxyvitamin D3 at doses causing the same increase of serum calcium (FIG. 24)): more potently
serum calcium level (Ovariectomized rats; [10]): increased dose-dependently
serum phosphorus level (Ovariectomized rats; [10]): increased dose-dependently
serum Ca concentration change ([3]; postprandial): tended to be elevated slightly but the change was within the normal range
urinary Ca/Cr ratio ([3]; postprandial): increased with the number of dosings
recovery of urinary Ca/Cr ratio ([3]; after completion of administration): recovered to the control value immediately after completion of administration
activity relative to 1,25-(OH)2 D3 ([4]; listed as 26,26,26,27,27,27-F6 -1,25-(OH)2 D3): at least ten times greater
activity relative to 1,25-(OH)2 D3 ([4]; listed as 26,26,26,27,27,27-hexafluoro derivative of 1α,25-dihydroxycholecalciferol): at least ten times greater
activity relative to 1,25-(OH)2 D3 ([4]; listed as 26,26,26,27,27,27-hexafluoro-1α,25-dihydroxyvitamin D3): about ten times more active
ability to mobilize calcium from bone [4, 11]: substantially greater
ability to stimulate calcium transport in the intestine [4, 11]: substantially greater
anti-rachitic activity according to the rat line test [4, 11]: substantially greater
ESR 1 h ([5]; 0.0125 μg single dose, subject 1, date 2/4 (before: 3)): 3
ESR 2 h ([5]; 0.0125 μg single dose, subject 1, date 2/4 (before: 7)): 8
ESR 1 h ([5]; 0.0125 μg single dose, subject 1, date 2/8 (before: 3)): 3
ESR 2 h ([5]; 0.0125 μg single dose, subject 1, date 2/8 (before: 7)): 8
ESR 1 h ([5]; 0.0125 μg single dose, subject 1, follow-up examination 2/15 (before: 3)): 13
ESR 2 h ([5]; 0.0125 μg single dose, subject 1, follow-up examination 2/15 (before: 7)): 34
ESR 1 h [5, 12]: 1
ESR 2 h [5, 12]: 8
ESR 1 h ([5]; 2.0 μg single dose, subject 8, date 8/15 (before: 5)): 4
ESR 2 h ([5]; 2.0 μg single dose, subject 8, date 8/15 (before: 8)): 8
ESR 1 h ([5]; 2.0 μg single dose, subject 8, date 8/19 (before: 5)): 4
ESR 2 h ([5]; 2.0 μg single dose, subject 8, date 8/19 (before: 8)): 11
ESR 1 h ([5]; 2.0 μg single dose, subject 8, follow-up examination 8/27 (before: 5)): 11
ESR 2 h ([5]; 2.0 μg single dose, subject 8, follow-up examination 8/27 (before: 8)): 27
ESR 1 h [5, 13]: 3
ESR 2 h [5, 13]: 8
Symptom ([5]; repeated-dose study, 1.0 μg/day, 7 days, subjects 1-8): None and No symptom
increase in erythrocyte sedimentation rate, number of cases ([5]; single dose 0.0125 μg (Step 1)): one case
headache (symptom) ([5]; single dose 0.25 μg (Step 5)): Headache; also recorded: one case
increase in erythrocyte sedimentation rate, number of cases ([5]; single dose 2.0 μg (Step 8)): one case
Symptom ([5]; study of dietary effect, 2.0 μg, subjects 1-10): None and No symptom
toxicity at higher doses in humans ([6]; 0.5 μg, 1 μg and 2 μg (FIGS. 2-4)): without toxicity problems
serum Ca change [6, 14]: No major change
serum Mg change [6, 14]: No major change
serum P change [6, 14]: No major change
blood biochemistry change [6, 15]: No change
serum electrolytes change [6, 15]: No change
toxicity relative to 1α-hydroxyvitamin D3 (male rats): about five times more toxic
LD50 at 336 h [7]: 0.043 mg/kg
AUC (area under the serum concentration curve), postprandial versus fasting [8]: slightly higher
